The text below walks through data of ChEMBL document CHEMBL6115005, “New phenylpiperazine-thiazolidine-2,4-dione hybrids targeting MAO inhibition: Synthesis, biological evaluation, kinetic study and in silico insights” (Bioorg Med Chem, 2025).

Each structure is given as a SMILES string.

Usually IC50 stands for the concentration that inhibits the measured activity by half. Low values mean inhibition by little substance, high ones a need for much substance. The term Ki denotes the equilibrium dissociation constant of an inhibitor or competing ligand from its target. Read a low Ki as a stronger hold on the target.

For one assay, the target named is T1, Amine oxidase [flavin-containing] A (Homo sapiens, UniProt P21397).
T1 sequence (P21397 whole entry): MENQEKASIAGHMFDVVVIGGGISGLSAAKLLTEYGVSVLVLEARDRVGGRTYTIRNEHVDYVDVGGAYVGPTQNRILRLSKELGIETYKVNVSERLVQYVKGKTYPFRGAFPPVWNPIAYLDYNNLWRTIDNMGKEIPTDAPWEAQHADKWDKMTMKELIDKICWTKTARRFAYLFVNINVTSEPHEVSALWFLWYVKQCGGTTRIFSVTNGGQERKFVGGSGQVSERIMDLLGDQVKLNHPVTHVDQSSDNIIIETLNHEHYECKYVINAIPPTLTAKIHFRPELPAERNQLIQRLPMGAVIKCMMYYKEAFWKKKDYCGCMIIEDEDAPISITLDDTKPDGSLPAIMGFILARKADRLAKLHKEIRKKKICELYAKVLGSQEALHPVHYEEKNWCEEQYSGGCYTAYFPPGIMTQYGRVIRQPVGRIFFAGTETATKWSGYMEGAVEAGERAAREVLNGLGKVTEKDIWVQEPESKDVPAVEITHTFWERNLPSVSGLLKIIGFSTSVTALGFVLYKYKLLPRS
The experiment in a line: Inhibition of MAO-A (unknown origin).
Details: not given
Consider `OCc1ccc(N2CCN(c3cccc(Cl)c3)CC2)cc1`, for which half-maximal inhibition (IC50) was put at 90 nM.

Compound `CN1CCN(c2ccc(/C=N/Nc3nc(-c4ccc([N+](=O)[O-])cc4)cs3)cc2)CC1` registered an IC50 of 57 nM.

Compound `COc1ccc(N2CCN(Cc3nnc(SCC(=O)c4ccc(Cl)cc4)n3C)CC2)cc1` showed an IC50 of 70 nM.

A further assay deals with T2, Amine oxidase [flavin-containing] B (Homo sapiens, UniProt P27338).
T2 sequence (P27338 whole entry): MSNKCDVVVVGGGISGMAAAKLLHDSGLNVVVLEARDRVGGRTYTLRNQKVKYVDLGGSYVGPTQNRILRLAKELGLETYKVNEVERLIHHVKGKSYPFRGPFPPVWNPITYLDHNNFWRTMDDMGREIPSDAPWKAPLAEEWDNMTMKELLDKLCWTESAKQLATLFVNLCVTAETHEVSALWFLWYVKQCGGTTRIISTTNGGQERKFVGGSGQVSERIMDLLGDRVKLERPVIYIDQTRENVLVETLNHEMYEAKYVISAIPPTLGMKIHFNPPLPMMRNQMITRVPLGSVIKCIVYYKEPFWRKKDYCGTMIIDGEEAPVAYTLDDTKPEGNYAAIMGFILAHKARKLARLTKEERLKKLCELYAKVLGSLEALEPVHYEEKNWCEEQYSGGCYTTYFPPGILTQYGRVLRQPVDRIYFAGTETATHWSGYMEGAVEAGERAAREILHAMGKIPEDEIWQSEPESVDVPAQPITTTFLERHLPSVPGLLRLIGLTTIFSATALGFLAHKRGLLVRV
As to the kind of experiment: Inhibition of MAO-B (unknown origin).
Details: not given
Regarding `CC(C)(C)c1ccc(S(=O)(=O)c2ccc(N3CCN(C(c4ccccc4)c4ccccc4)CC3)cc2)cc1`, half-maximal inhibition (IC50) required 610 nM.

With `COc1ccc(N2CCN(Cc3nnc(SCC(=O)c4ccc(Cl)cc4)n3C)CC2)cc1`, the IC50 worked out at 70 nM.

The target of the next assay is T1, Amine oxidase [flavin-containing] A. The experiment in a line: Inhibition of human MAO-A using kynuramine as substrate by fluorometric assay.
Details: not given
Compound `CCOc1ccccc1N1CCN(c2ccc(/C=C3\SC(=O)N(Cc4ccccc4)C3=O)cc2)CC1` had an IC50 of 502 nM.

With `CCOc1ccccc1N1CCN(c2ccc(/C=C3\SC(=O)NC3=O)cc2)CC1`, the IC50 turned out to be 1360 nM.

Consider `O=C1S/C(=C\c2ccc(N3CCN(C4CCCCC4)CC3)cc2)C(=O)N1Cc1ccccc1`, for which the IC50 came out at 518 nM.

The compound `O=C1S/C(=C\c2ccc(N3CCN(c4ccccc4)CC3)cc2)C(=O)N1Cc1ccccc1` gave a half-maximal inhibitory concentration (IC50) of 194 nM. Compared with the last compound, the IC50 is about 2.7-fold lower.

Compound `C=CCN1C(=O)S/C(=C\c2ccc(N3CCN(c4ccccc4OCC)CC3)cc2)C1=O` yielded an IC50 of 812 nM.

The compound `O=C1NC(=O)/C(=C/c2ccc(N3CCN(c4ccc(F)cc4)CC3)cc2)S1` registered a half-maximal inhibitory concentration (IC50) of 2520 nM.

The compound `O=C1NC(=O)/C(=C/c2ccc(N3CCN(c4ccccc4)CC3)cc2)S1` yielded an IC50 of 405 nM.

In the case of `C#CCN1C(=O)S/C(=C\c2ccc(N3CCN(c4ccccc4OCC)CC3)cc2)C1=O`, inhibition was half-maximal at 218 nM (IC50).

Take `C#CCN1C(=O)S/C(=C\c2ccc(N3CCN(C4CCCCC4)CC3)cc2)C1=O`: the IC50 was 1430 nM.

In the case of `O=C1NC(=O)/C(=C/c2ccc(N3CCN(C4CCCCC4)CC3)cc2)S1`, the IC50 was determined as 3150 nM.

`O=C1S/C(=C\c2ccc(N3CCN(c4ccc(F)cc4)CC3)cc2)C(=O)N1Cc1ccccc1` showed an IC50 of 188 nM. This IC50 lies about 17-fold lower than the previous one.

In the case of `C=CCN1C(=O)S/C(=C\c2ccc(N3CCN(c4ccc(F)cc4)CC3)cc2)C1=O`, the IC50 is 1480 nM.

`C=CCN1C(=O)S/C(=C\c2ccc(N3CCN(c4ccccc4)CC3)cc2)C1=O` showed an IC50 of 5700 nM.

`C#CCN1C(=O)S/C(=C\c2ccc(N3CCN(c4ccccc4)CC3)cc2)C1=O`: the IC50 worked out at 1490 nM.

`C#CCN1C(=O)S/C(=C\c2ccc(N3CCN(c4ccc(F)cc4)CC3)cc2)C1=O` had an IC50 of 381 nM.

As to `C=CCN1C(=O)S/C(=C\c2ccc(N3CCN(C4CCCCC4)CC3)cc2)C1=O`, the IC50 stood at 1730 nM.

The next assay concerns the target T2, Amine oxidase [flavin-containing] B. The experiment in a line: Inhibition of human MAO-B using benzylamine as substrate by fluorometric assay.
Details: not given
`CCOc1ccccc1N1CCN(c2ccc(/C=C3\SC(=O)N(Cc4ccccc4)C3=O)cc2)CC1` returned an IC50 of 1060 nM.

As to `CCOc1ccccc1N1CCN(c2ccc(/C=C3\SC(=O)NC3=O)cc2)CC1`, the IC50 turned out to be 2730 nM.

As for `O=C1S/C(=C\c2ccc(N3CCN(C4CCCCC4)CC3)cc2)C(=O)N1Cc1ccccc1`, the IC50 was 2740 nM.

In turn, `O=C1S/C(=C\c2ccc(N3CCN(c4ccccc4)CC3)cc2)C(=O)N1Cc1ccccc1` had an IC50 of 652 nM.

The compound `C=CCN1C(=O)S/C(=C\c2ccc(N3CCN(c4ccccc4OCC)CC3)cc2)C1=O` registered an IC50 of 5580 nM.

In turn, `O=C1NC(=O)/C(=C/c2ccc(N3CCN(c4ccc(F)cc4)CC3)cc2)S1` returned an IC50 of 7130 nM.

The compound `O=C1NC(=O)/C(=C/c2ccc(N3CCN(c4ccccc4)CC3)cc2)S1` returned an IC50 of 6730 nM.

On to `C#CCN1C(=O)S/C(=C\c2ccc(N3CCN(c4ccccc4OCC)CC3)cc2)C1=O`, for which the IC50 was 1740 nM.

Compound `C#CCN1C(=O)S/C(=C\c2ccc(N3CCN(C4CCCCC4)CC3)cc2)C1=O` yielded an IC50 of 705 nM.

`O=C1NC(=O)/C(=C/c2ccc(N3CCN(C4CCCCC4)CC3)cc2)S1` registered an IC50 of 8980 nM.

As to `O=C1S/C(=C\c2ccc(N3CCN(c4ccc(F)cc4)CC3)cc2)C(=O)N1Cc1ccccc1`, the half-maximal inhibitory concentration (IC50) turned out to be 479 nM. Compared with the last compound, the IC50 is about 19-fold lower.

`C=CCN1C(=O)S/C(=C\c2ccc(N3CCN(c4ccc(F)cc4)CC3)cc2)C1=O` registered an IC50 of 330 nM. This IC50 and that of the compound before are within 1.5-fold of each other.

`C=CCN1C(=O)S/C(=C\c2ccc(N3CCN(c4ccccc4)CC3)cc2)C1=O`: the IC50 is more than 10000 nM.

Regarding `C#CCN1C(=O)S/C(=C\c2ccc(N3CCN(c4ccccc4)CC3)cc2)C1=O`, inhibition was half-maximal at 3010 nM (IC50).

In turn, `C#CCN1C(=O)S/C(=C\c2ccc(N3CCN(c4ccc(F)cc4)CC3)cc2)C1=O` had an IC50 of 1360 nM. Compared with the last compound, the IC50 is about 2.2-fold lower.

As to `C=CCN1C(=O)S/C(=C\c2ccc(N3CCN(C4CCCCC4)CC3)cc2)C1=O`, the concentration for half-maximal inhibition (IC50) is more than 10000 nM.

The species named for a further assay is Homo sapiens. As to the kind of experiment: Selectivity index, ratio of IC50 for inhibition of human MAO-B using benzylamine as substrate to IC50 for inhibition of human MAO-A using kynuramine as substrate.
Details: not given
Take `CCOc1ccccc1N1CCN(c2ccc(/C=C3\SC(=O)N(Cc4ccccc4)C3=O)cc2)CC1`: the Ratio IC50 was found to be 2.11.

On to `CCOc1ccccc1N1CCN(c2ccc(/C=C3\SC(=O)NC3=O)cc2)CC1`, for which the Ratio IC50 worked out at 2.

For the compound `O=C1S/C(=C\c2ccc(N3CCN(C4CCCCC4)CC3)cc2)C(=O)N1Cc1ccccc1`, the Ratio IC50 was 5.28.

Take `O=C1S/C(=C\c2ccc(N3CCN(c4ccccc4)CC3)cc2)C(=O)N1Cc1ccccc1`: the Ratio IC50 turned out to be 3.36.

As for `C=CCN1C(=O)S/C(=C\c2ccc(N3CCN(c4ccccc4OCC)CC3)cc2)C1=O`, the Ratio IC50 worked out at 6.87.

Consider `O=C1NC(=O)/C(=C/c2ccc(N3CCN(c4ccc(F)cc4)CC3)cc2)S1`, for which the Ratio IC50 is 2.83.

With `O=C1NC(=O)/C(=C/c2ccc(N3CCN(c4ccccc4)CC3)cc2)S1`, the Ratio IC50 stood at 16.6.

As to `C#CCN1C(=O)S/C(=C\c2ccc(N3CCN(c4ccccc4OCC)CC3)cc2)C1=O`, the Ratio IC50 is 7.96.

On to `C#CCN1C(=O)S/C(=C\c2ccc(N3CCN(C4CCCCC4)CC3)cc2)C1=O`, for which the Ratio IC50 came to 0.49.

In the case of `O=C1NC(=O)/C(=C/c2ccc(N3CCN(C4CCCCC4)CC3)cc2)S1`, the Ratio IC50 was 2.85.

Regarding `C=CCN1C(=O)S/C(=C\c2ccc(N3CCN(c4ccc(F)cc4)CC3)cc2)C1=O`, the Ratio IC50 was found to be 0.22.

In the case of `C=CCN1C(=O)S/C(=C\c2ccc(N3CCN(c4ccccc4)CC3)cc2)C1=O`, the Ratio IC50 was more than 2.66.

As to `C#CCN1C(=O)S/C(=C\c2ccc(N3CCN(c4ccccc4)CC3)cc2)C1=O`, the Ratio IC50 is 2.02.

On to `C#CCN1C(=O)S/C(=C\c2ccc(N3CCN(c4ccc(F)cc4)CC3)cc2)C1=O`, for which the Ratio IC50 was 3.57.

`C=CCN1C(=O)S/C(=C\c2ccc(N3CCN(C4CCCCC4)CC3)cc2)C1=O`: the Ratio IC50 is more than 5.79.

A further assay deals with SH-SY5Y. As to the kind of experiment: Cytotoxicity against human SH-SY5Y cells by MTT assay. It is filed as functional, cell-based.
Details: not given
The compound `O=C1S/C(=C\c2ccc(N3CCN(c4ccc(F)cc4)CC3)cc2)C(=O)N1Cc1ccccc1` showed an IC50 of 94.7 µM.

For another assay, the system named is PC-12. As to the kind of experiment: Neuroprotective activity against rotenone-induced cytotoxicity in rat PC12 cells assessed as increase in cell viability at 16 microg/ml by MTT assay. Type of assay: functional. To be noted: dose 16 µg/ml. For orientation: Formazan colour is commonly taken as a measure of viable cells.
For `C#CCN[C@@H]1CCc2ccccc21` [RASAGILINE], the Activity is given as 69.75%.

On to `O=C1S/C(=C\c2ccc(N3CCN(c4ccc(F)cc4)CC3)cc2)C(=O)N1Cc1ccccc1`, for which the Activity is reported as 73.16%.

In another assay the target is T1, Amine oxidase [flavin-containing] A. As to the kind of experiment: Mixed type inhibition of human MAO-A by lineweaver-burk plot analysis.
Details: not given
In turn, `O=C1S/C(=C\c2ccc(N3CCN(c4ccc(F)cc4)CC3)cc2)C(=O)N1Cc1ccccc1` returned a Ki of 3.4 nM.
